The source of these data is ChEMBL document CHEMBL5385973, “Progress in small-molecule inhibitors targeting PD-L1” (RSC Med Chem, 2024).

Assay [1] addresses T1, Programmed cell death protein 1/Programmed cell death 1 ligand 1 (Homo sapiens, UniProt Q9NZQ7). In words: Inhibition of PD-1/PD-L1 (unknown origin) interaction. The class given is protein-complex assay.
Assay [2] concerns the target T1, Programmed cell death protein 1/Programmed cell death 1 ligand 1. In words: Inhibition of PD-1/PD-L1 interaction (unknown origin) by AlphaLISA assay relative to control. The class given is protein-complex assay. (In general: Bead proximity is the source of the signal in Alpha formats.)
Assay [3] has the same target. As to the kind of experiment: Inhibition of human […] interaction incubated for 15 mins by TR-FRET assay. Type of assay: protein-complex assay.
Assay [4] shares this target. In words: Inhibition of PD-1/PD-L1 interaction (unknown origin) by TR-FRET assay. Type of assay: protein-complex assay. For orientation: TR-FRET usually uses a lanthanide donor and a delayed reading to cut background.
Assay [5] has as its target Programmed cell death 1 ligand 1 (Homo sapiens) (UniProt Q9NZQ7). As to the kind of experiment: Binding affinity to PD-L1 (unknown origin) assessed as Gibbs free energy change.
The test system of a further assay is Jurkat. In words: Induction of T cell activation in human Jurkat T cells overexpressing PD-1 co-cultured with Chinese hamster CHO cells overexpressing PD-L1 assessed as increase in luciferase activity incubated for 6 hrs by Bio-GloTM reagent based immune checkpoint blockade assay. Type of assay: functional.
The target of assay [6] is T1, Programmed cell death protein 1/Programmed cell death 1 ligand 1. In words: Inhibition of PD-1/PD-L1 (unknown origin) interaction incubated for 2 hr by TR-FRET assay. The class given is protein-complex assay.
Assay [7] has the same target. As to the kind of experiment: Inhibition of human PD-1/PD-L1 interaction incubated for 24 hrs by HTRF assay. The class given is protein-complex assay.
Assay [8] has the same target. In words: Inhibition of PD-1/PD-L1 (unknown origin) interaction incubated for 1 hr by HTRF assay. Type of assay: protein-complex assay.
For assay [9] the target is unchanged. As to the kind of experiment: Inhibition of PD-1 (unknown origin)/PD-L1 (unknown origin) interaction by HTRF binding assay. The class given is protein-complex assay.
Assay [10] shares this target. As to the kind of experiment: Inhibition of PD-1/PD-L1 (unknown origin) protein-protein interaction incubated for 15 mins by TR-FRET assay. The class given is protein-complex assay.

pEC50, pIC50: −log10 of the molar value.

T1 sequence (Q15116 whole entry): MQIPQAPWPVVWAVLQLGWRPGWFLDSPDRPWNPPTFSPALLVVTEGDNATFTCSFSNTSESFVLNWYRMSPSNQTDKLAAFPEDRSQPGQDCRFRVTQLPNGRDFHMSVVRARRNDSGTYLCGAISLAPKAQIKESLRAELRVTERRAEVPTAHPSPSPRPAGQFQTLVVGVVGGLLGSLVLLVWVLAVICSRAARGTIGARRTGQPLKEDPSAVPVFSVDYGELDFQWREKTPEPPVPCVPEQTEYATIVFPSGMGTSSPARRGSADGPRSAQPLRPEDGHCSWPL
T1 sequence (Q9NZQ7 whole entry): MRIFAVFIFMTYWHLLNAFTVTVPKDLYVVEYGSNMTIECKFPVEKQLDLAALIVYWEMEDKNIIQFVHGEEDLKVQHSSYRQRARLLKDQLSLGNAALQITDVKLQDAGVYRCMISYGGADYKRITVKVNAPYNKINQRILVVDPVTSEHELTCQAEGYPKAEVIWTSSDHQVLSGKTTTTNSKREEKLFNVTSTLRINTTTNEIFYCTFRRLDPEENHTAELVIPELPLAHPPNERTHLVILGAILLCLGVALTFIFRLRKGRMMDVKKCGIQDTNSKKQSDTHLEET
Chain of Programmed cell death 1 ligand 1 (Homo sapiens) (Q9NZQ7 whole entry): as above

Turning to `O=C(O)[C@H](CO)NCc1ccc(Nc2nsc3c(-c4ccc5c(c4)OCCO5)cccc23)c(Br)c1`, in assay [1], the pIC50 – broadly, the IC50 on a negative log10 scale, so that one unit is a factor of ten – is 8.24.

`Cc1c(COc2cc(OCc3cncc(C#N)c3)c(CN(CCCN(C)C)CCS(=O)(=O)O)cc2Cl)cccc1-c1ccc2c(c1)OCCO2` showed a pIC50 in assay [2] of 8.57.

The compound `CS(=O)(=O)c1cncc(CCc2nc(OCc3cccc(-c4cccc(-c5ccc6c(c5)C[C@H](N)C6)c4Cl)c3Cl)c(Br)cc2CN2CCCC[C@@H]2C(=O)O)c1` had a pIC50 in [3] of 10.05.

Turning to `Cc1c(COc2cc(OCc3cccc(C#N)c3)c(CNC(CO)(CO)CO)cc2Cl)cccc1-c1cccc(-c2cc(C(=O)N3CC[C@@H](O)C3)no2)c1`, the pIC50 in assay [4] was 7.64.

With `Fc1cccc(-c2nccc(N[C@@H]3CO[C@@H]4[C@H]3OC[C@H]4NCc3ccccn3)n2)c1`, the deltaG in assay [5] is -32 kcal/mol.

Regarding `Cn1nc(Nc2cccc(-c3ccc4c(c3)OCCO4)c2Cl)c2ccc(CN[C@H](CO)C(=O)O)cc21`, the pEC50 (in general, the negative decadic logarithm of the EC50, by convention in mol/L) in the assay with Jurkat was 5.79. Besides, the pIC50 in assay [6] is 8.02.

Consider `Cc1c(/C=C/c2ccc(CNC(C)(CO)C(=O)O)cc2C(F)(F)F)cccc1-c1ccc2c(c1)OCCO2` (centres undefined), for which the pIC50 in assay [7] was 7.74.

Compound `Cc1c(COc2cc(OCc3cncc(C#N)c3)c(CNC(C)(C)C(=O)O)cc2Cl)cccc1-c1ccccc1` gave a pIC50 in assay [2] of 8.57.

Consider `Cc1c(COc2cc(OCc3cccc(C#N)c3)c(CN3C[C@H](O)C[C@@H]3C(=O)O)cc2Cl)cccc1-c1ccc2c(c1)OCCO2`, for which, in assay [5], the deltaG was -34 kcal/mol.

With `Cc1c(COc2cc(OCc3ccc(OC(F)(F)F)nc3)c(N3CCCCC3C(=O)O)cc2Cl)cccc1-c1ccccc1` (centres undefined), the pIC50 in [8] was 7.25.

As for `O=C(O)[C@H](CO)NCc1cc(Cl)c(OCc2cccc(-c3ccccc3)c2Br)cc1OCc1cccnc1`, the pIC50 in assay [9] is 8.96.

`Cc1cc(/C=C/c2ccc3cc(N(C)C)ccc3[n+]2C)c(C)n1-c1ccccc1` gave a pIC50 in assay [10] of 7.53.

Compound `CC(C)OC(=O)[C@H](CO)NCc1cc(Cl)c(OCc2cccc(-c3ccccc3)c2Br)cc1OCc1cccnc1` had a pIC50 in assay [9] of 7.34.
